Reference: publication PMC8919667 (The Journal of Cell Biology, 2022)

T1: 6His-3FLAG-Cdc14 (Saccharomyces cerevisiae, UniProt Q00684)
T1 sequence (Q00684 1-551): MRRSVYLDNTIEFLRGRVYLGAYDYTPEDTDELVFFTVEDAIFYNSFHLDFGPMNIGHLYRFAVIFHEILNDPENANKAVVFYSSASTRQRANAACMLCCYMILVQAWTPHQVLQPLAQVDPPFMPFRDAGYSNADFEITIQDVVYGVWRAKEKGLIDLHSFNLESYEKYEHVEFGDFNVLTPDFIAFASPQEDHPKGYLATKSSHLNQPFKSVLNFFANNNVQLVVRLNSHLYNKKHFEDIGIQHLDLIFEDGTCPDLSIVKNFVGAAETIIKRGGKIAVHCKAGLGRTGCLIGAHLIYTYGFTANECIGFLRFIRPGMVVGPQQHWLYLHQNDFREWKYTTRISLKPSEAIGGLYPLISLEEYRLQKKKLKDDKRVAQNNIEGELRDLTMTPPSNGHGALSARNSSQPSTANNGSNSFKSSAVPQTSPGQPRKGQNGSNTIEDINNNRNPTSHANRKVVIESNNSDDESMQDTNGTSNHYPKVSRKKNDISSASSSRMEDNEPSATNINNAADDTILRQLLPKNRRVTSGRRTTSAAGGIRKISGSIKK

T2: 3HA-Atg13-p PxL2m (S. cerevisiae, UniProt Q06628 1-738, PxL2m (A207-IG), phosphorylated (Atg13-p); residues not stated)
T2 sequence (looked up): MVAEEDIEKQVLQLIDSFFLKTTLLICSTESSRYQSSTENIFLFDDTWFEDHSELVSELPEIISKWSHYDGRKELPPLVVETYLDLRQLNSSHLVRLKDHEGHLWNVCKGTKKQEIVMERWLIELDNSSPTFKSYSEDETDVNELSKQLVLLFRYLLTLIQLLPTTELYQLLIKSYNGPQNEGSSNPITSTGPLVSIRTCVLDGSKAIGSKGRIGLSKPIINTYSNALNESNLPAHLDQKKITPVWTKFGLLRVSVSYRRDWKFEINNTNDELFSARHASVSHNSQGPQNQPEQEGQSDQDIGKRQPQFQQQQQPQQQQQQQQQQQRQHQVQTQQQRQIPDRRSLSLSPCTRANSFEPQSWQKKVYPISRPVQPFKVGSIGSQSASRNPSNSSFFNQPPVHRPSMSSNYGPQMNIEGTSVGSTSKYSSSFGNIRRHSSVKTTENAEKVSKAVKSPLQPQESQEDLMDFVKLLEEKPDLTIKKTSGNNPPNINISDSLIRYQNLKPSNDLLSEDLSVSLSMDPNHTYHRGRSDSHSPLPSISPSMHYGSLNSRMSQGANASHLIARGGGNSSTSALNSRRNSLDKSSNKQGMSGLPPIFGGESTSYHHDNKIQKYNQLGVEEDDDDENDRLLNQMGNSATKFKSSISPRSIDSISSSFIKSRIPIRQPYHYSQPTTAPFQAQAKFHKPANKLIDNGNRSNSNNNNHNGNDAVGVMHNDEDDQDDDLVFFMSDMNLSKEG


Tests used:
6His-3FLAG-Cdc14 = target: T1, 6His-3FLAG-Cdc14; assay: colorimetric p-nitrophenolate release, absorbance at […] nm; type: biochemical; settings: 10 mM pNPP, 20 mM Tris pH 7.5, 4 mM MgCl2, 1 mM EGTA, room temperature
3HA-Atg13-p PxL2m = target: T2, 3HA-Atg13-p PxL2m; assay: pull-down

| binding result (3HA-Atg13-p PxL2m) | Molecule | colorimetric p-nitrophenolate release, absorbance at 405 nm (6His-3FLAG-Cdc14) |
| --- | --- | --- |
|  | O=[N+]([O-])c1ccc(OP(=O)(O)O)cc1 [p-nitrophenyl phosphate] | 6His-3FLAG-Cdc14 exhibited concentration- and time-dependent phosphatase activity |
| binds | 6His-3FLAG-Cdc14-C283S (enzyme, S. cerevisiae, UniProt Q00684 1-551, looked up) MRRSVYLDNTIEFLRGRVYLGAYDYTPEDTDELVFFTVEDAIFYNSFHLDFGPMNIGHLYRFAVIFHEILNDPENANKAVVFYSSASTRQRANAACMLCCYMILVQAWTPHQVLQPLAQVDPPFMPFRDAGYSNADFEITIQDVVYGVWRAKEKGLIDLHSFNLESYEKYEHVEFGDFNVLTPDFIAFASPQEDHPKGYLATKSSHLNQPFKSVLNFFANNNVQLVVRLNSHLYNKKHFEDIGIQHLDLIFEDGTCPDLSIVKNFVGAAETIIKRGGKIAVHSKAGLGRTGCLIGAHLIYTYGFTANECIGFLRFIRPGMVVGPQQHWLYLHQNDFREWKYTTRISLKPSEAIGGLYPLISLEEYRLQKKKLKDDKRVAQNNIEGELRDLTMTPPSNGHGALSARNSSQPSTANNGSNSFKSSAVPQTSPGQPRKGQNGSNTIEDINNNRNPTSHANRKVVIESNNSDDESMQDTNGTSNHYPKVSRKKNDISSASSSRMEDNEPSATNINNAADDTILRQLLPKNRRVTSGRRTTSAAGGIRKISGSIKK |  |
